Measured values reported in US20260325542A1, “CANCER TARGETING COMPLEX, AND COMPOSITION COMPRISING SAME FOR PREVENTING OR TREATING CANCER” (EWHA UNIVERSITY - INDUSTRY COLLABORATION FOUNDATION, priority 2023, published 2026).
“Also recorded” adds a separate entry of the source.

Assays:
[1] = test system: organ tissue and cancer tissue; assay: H&E histology of major organs and cancer tissue; type: in vivo, mouse; conditions: excised after 15 days
Experimental: (§1) The control group was administered saline (10 mg/kg) once every 3 days for 15 days through the tail vein (total 4 administrations). The comparison group was administered ARV-771 (10 mg/kg) once every 3 days for 15 days through the tail vein (total 4 administrations). The example group was administered ECMal-PROTAC 10 mg/kg (wquiv. to ARV-771) of example 1 once every 3 days for 15 days through the tail vein (total 4 administrations).
The control group, the comparison group, and the example group were euthanized after 15 days, and major organs (heart, liver, lung, spleen, kidney) and cancer tissue were excised.
Furthermore, to analyze cancer cell apoptosis, TUNEL (terminal deoxynucleotidyl transferase dUTP nick end labeling) analysis was performed on cancer tissue excised from the control group, the comparison group, and the example group. Next, histological analysis was performed by H&E (hematoxylin & eosin) staining of the major organ tissues and cancer tissue of each excised group.
According to FIG. 29, major organ tissue and cancer tissue were excised from the control group, the comparison group, and the example group after 15 days. The excised organ tissue and cancer tissue were stained with H&E (hematoxylin & eosin). The H&E stained tissue was observed using a BX51 optical microscope (Olympus, Tokyo, Japan) and a TCS SP8 confocal laser microscope.

Bcl-2 [2] = assay: Western blot of excised cancer tissue, Bcl-2; type: in vivo, mouse
Experimental: as §1

BRD4 and c-Myc = assay: Immunofluorescence of excised cancer tissue (DAPI, anti-BRD4, anti-c-Myc); type: in vivo, mouse; conditions: vs comparison group and control group
Experimental: as §1
FIG. 33 is an image taken with a confocal laser scanning microscope after staining cancer tissue excised from the control group (Control, Saline), the comparison group (ARV-771, intravenous injection), and the example group (ECMal-PROTAC, intravenous injection) with DAPI, anti-BRD4, and anti-c-Myc.

Bcl-2 [3] = assay: Western blot, Bcl-2 level in 4T1 cells; type: cell-based, mouse; conditions: 0 to 10 μM, 24 hours
Experimental: Accordingly, Western blot analysis was performed to confirm the anticancer ability by evaluating the presence or absence of degradation of BRD4 and other related proteins (e.g., c-Myc and Bcl-2) when cancer cells were treated with the complex for cancer targeting (ECMal-PROTAC) of example 1. The complex for cancer targeting (ECMal-PROTAC) of example 1 and ARV-771 were prepared as samples.
First, 1×10^5 4T1 cells were dispensed into each well of a 6-well culture plate and cultured for 24 hours at 37° C. and 5% carbon dioxide atmosphere. The cell culture medium was supplemented with various concentrations of ARV-771 (0 to 10 μM) or the complex for cancer targeting (ECMal-PROTAC) of example 1 (0 to 10 μM), and cultured at 37° C. for 24 hours. After the culture was completed, the cells were washed 3 times with PBS, and lysed with a lysis buffer containing 1% […]. Cell debris from the recovered lysate was removed by centrifugation at 12,000 rpm for 25 minutes. After recovering the supernatant, the protein amount was measured using a BCA kit. The supernatant was loaded onto a 10% sodium dodecyl sulfate-polyacrylamide gel. Electrophoresis (SDS-PAGE) was performed, followed by blotting onto a polyvinylidene difluoride (PVDF) membrane. […] The immunoreactive bands on the PVDF membrane were analyzed through an ECL (enhanced chemiluminescence) system.

[4] = test system: major organs and cancer tissue; assay: Ex vivo biodistribution in major organs and cancer tissue; parameters: species or system mouse; conditions: 24 hours after i.v. 3 mg/kg
Experimental: 5-week-old female Balb/c and Balb/c nu/nu mice were purchased from NaraBio, Inc (Seoul, Republic of Korea). The mice underwent a 2-week acclimatization period before the example. The mice were raised under free-feeding conditions in a breeding room maintained at a temperature of 22±2° C. and humidity of 40-60% during the example. The light and dark cycle was regulated at 12-hour intervals. All examples were conducted in compliance with the relevant laws and institutional guidelines of the KIST Institutional Animal Care and Use Committee (IACUC; Approval No.: 2021-143).
Cancer animal models were prepared by inoculating 1×10^6 4T1 cells into the left thigh of the mice, and raising them until the tumor volume reached 150-200 mm3.
Samples were prepared as follows to analyze the in vivo therapeutic effect of the complex for cancer targeting (ECMal-PROTAC) of example 1. A Cy5.5-BSA solution (Cy5.5-Alb, Preparation Example 1, 200 μM) diluted with PBS was co-incubated by mixing it with an ECMal-PROTAC aqueous solution (140 μM) of example 1 at a 1:1 volume ratio. […]
To analyze the sample distribution in the excised cancer tissue, the excised major organs and cancer tissue were imaged with the IVIS Lumina Series III system (PerkinElmer, Waltham, MA, USA) and analyzed with Living Image software (PerkinElmer).

[5] = Body weight and systemic side effects; type: in vivo, mouse; conditions: 10 mg/kg, i.v., once every 3 days for 15 days
Experimental: as §1
Tumor size and body weight were measured every two days for the control group, the comparison group, and the example group.

liver tissue = assay: TUNEL analysis of liver tissue; type: in vivo, mouse; conditions: excised after 15 days

elimination through the kidneys [4]: very low probability of kidney excretion
Structure (SMILES): Cc1ncsc1-c1ccc([C@H](C)NC(=O)[C@@H]2C[C@@H](OC(=O)CCCCn3nnc4c3CCC3C(CC4)C3COC(=O)NCCOCCOCCNC(=O)CCN3C(=O)C=CC3=O)CN2C(=O)[C@@H](NC(=O)COCCCOCCNC(=O)C[C@@H]2N=C(c3ccc(Cl)cc3)c3c(sc(C)c3C)-n3c(C)nnc32)C(C)(C)C)cc1 (stereo partly drawn) [ECMal-PROTAC]
damage to the liver tissue ([1]; H&E): does not cause damage to the liver tissue
damage in cancer tissue (H&E) [1]: strong damage
damage in organ tissue (H&E) ([1]; liver, lung, spleen, kidney, heart): No significant damage
Bcl-2 level in cancer tissue vs control (Bcl-2 [2]; Western blot, 10 mg/kg): much lower levels
Bcl-2 level in cancer tissue, example group vs comparison group (Bcl-2 [2]; Western blot, vs ARV-771 group (so in the source)): no significant difference
relative expression level of Bcl-2, fold lower than control group (Bcl-2 [2]; cancer tissue, FIG. 32): 2.3 times
fluorescence signals related to c-Myc and BRD4 (BRD4 and c-Myc): weaker fluorescence signals
Bcl-2 level (Bcl-2 [3]): reduces the levels; also recorded: reduced expression
systemic side effects [5]: did not show serious systemic side effects
weight loss [5]: no significant weight loss was observed
apoptosis rate in liver tissue vs control (TUNEL) (liver tissue): no significant difference in the apoptosis rate
